Reference: ChEMBL document CHEMBL1134204, “Carbonic anhydrase inhibitors: synthesis of sulfonamides incorporating dtpa tails and of their zinc complexes with powerful topical antiglaucoma properties” (Bioorg Med Chem Lett, 2001)

Assays:
Carbonic anhydrase 1 = Carbonic anhydrase 1 (Homo sapiens, UniProt P00915)
Carbonic anhydrase 4 = Carbonic anhydrase 4 (Homo sapiens, UniProt P22748)
Oryctolagus cuniculus [1] = test: Compound was evaluated in vivo in normotensive rabbits (23.5+/-2.6 mmHg) for the intraocular pressure (IOP) lowering 30 min after topical administration with one drop of Carbonic anhydrase inhibitor at a pH 7.0; assay type: functional, Eye
Oryctolagus cuniculus [2] = test: Compound was evaluated in vivo in normotensive rabbits (23.5+/-2.6 mmHg) for the intraocular pressure (IOP) lowering 90 min after topical administration with one drop of Carbonic hydrase inhibitor at a pH 7.5; assay type: functional, Eye
Oryctolagus cuniculus [3] = test: In vivo activity in normotensive rabbits (23.5+/-2.6 mmHg) for the intraocular pressure (IOP) lowering 30 min after topical administration with one drop of Carbonic anhydrase inhibitor at a pH 7; assay type: functional, Eye
Oryctolagus cuniculus [4] = test: In vivo activity in normotensive rabbits (23.5+/-2.6 mmHg) for the intraocular pressure (IOP) lowering 60 min after topical administration with one drop of Carbonic anhydrase inhibitor at a pH 7; assay type: functional, Eye
Oryctolagus cuniculus [5] = test: In vivo activity in normotensive rabbits (23.5+/-2.6 mmHg) for the intraocular pressure (IOP) lowering 90 min after topical administration with one drop of Carbonic anhydrase inhibitor at a pH 7; assay type: functional, Eye
Oryctolagus cuniculus [6] = test: In vivo activity in glaucomatous rabbits (33.5+/-3.0 mmHg) for the intraocular pressure (IOP) lowering 30 min after topical administration with one drop of Carbonic anhydrase at a pH 7.0; assay type: functional, Eye
Oryctolagus cuniculus [7] = test: In vivo activity in glaucomatous rabbits (33.5+/-3.0 mmHg) for the intraocular pressure (IOP) lowering 90 min after topical administration with one drop of Carbonic anhydrase at a pH 7.0; assay type: functional, Eye
[8] = octanol/water
[9] = not given; remark: listed apart in the source
Oryctolagus cuniculus [10] = test: In vivo activity in normotensive rabbits (23.5+/-2.6 mmHg) for the intraocular pressure (IOP) lowering 30 min after topical administration with one drop of Carbonic anhydrase inhibitor at a pH 7.4; assay type: functional, Eye
Oryctolagus cuniculus [11] = test: In vivo activity in normotensive rabbits (23.5+/-2.6 mmHg) for the intraocular pressure (IOP) lowering 60 min after topical administration with one drop of Carbonic anhydrase inhibitor at a pH 7.4; assay type: functional, Eye
Oryctolagus cuniculus [12] = test: In vivo activity in normotensive rabbits (23.5+/-2.6 mmHg) for the intraocular pressure (IOP) lowering 90 min after topical administration with one drop of Carbonic anhydrase inhibitor at a pH 7.4; assay type: functional, Eye
Oryctolagus cuniculus [13] = test: Compound was evaluated in vivo in normotensive rabbits (23.5+/-2.6 mmHg) for the intraocular pressure (IOP) lowering 90 min after topical administration with one drop of Carbonic anhydrase inhibitor at a pH 7; assay type: functional, Eye
Oryctolagus cuniculus [14] = test: In vivo activity in normotensive rabbits (23.5+/-2.6 mmHg) for the intraocular pressure (IOP) lowering 30 min after topical administration with one drop of Carbonic anhydrase inhibitor at a pH 7.0; assay type: functional, Eye
Oryctolagus cuniculus [15] = test: In vivo activity in normotensive rabbits (23.5+/-2.6 mmHg) for the intraocular pressure (IOP) lowering 60 min after topical administration with one drop of Carbonic anhydrase inhibitor at a pH 7.0; assay type: functional, Eye

Chain of Carbonic anhydrase 4 (P22748 whole entry): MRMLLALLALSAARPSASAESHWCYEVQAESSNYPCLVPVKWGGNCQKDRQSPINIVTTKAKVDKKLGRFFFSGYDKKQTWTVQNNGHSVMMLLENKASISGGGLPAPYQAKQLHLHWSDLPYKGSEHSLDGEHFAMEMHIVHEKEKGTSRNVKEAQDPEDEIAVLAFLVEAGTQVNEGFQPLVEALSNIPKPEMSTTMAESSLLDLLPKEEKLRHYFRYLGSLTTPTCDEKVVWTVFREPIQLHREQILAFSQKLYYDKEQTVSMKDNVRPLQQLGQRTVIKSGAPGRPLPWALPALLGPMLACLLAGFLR
Chain of Carbonic anhydrase 1 (P00915 whole entry): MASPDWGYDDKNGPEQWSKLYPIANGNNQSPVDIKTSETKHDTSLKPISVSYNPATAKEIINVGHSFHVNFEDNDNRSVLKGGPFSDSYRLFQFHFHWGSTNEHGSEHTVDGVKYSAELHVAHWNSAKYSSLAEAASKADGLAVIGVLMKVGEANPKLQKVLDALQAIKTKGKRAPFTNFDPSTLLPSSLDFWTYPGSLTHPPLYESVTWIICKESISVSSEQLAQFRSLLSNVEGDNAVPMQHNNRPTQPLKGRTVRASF

| SMILES | Ki (Carbonic anhydrase 1) | Ki (Carbonic anhydrase 4) | other results |
| --- | --- | --- | --- |
| NS(=O)(=O)c1nnc(NC(=O)CN(CCN(CCN(CC(=O)O)CC(=O)Nc2nnc(S(N)(=O)=O)s2)CC(=O)[O-])CC(=O)[O-])s1.[Zn+2] |  | 4 nM | Change in IOP (Oryctolagus cuniculus [1]): 7.4 mmHg; Change in IOP (Oryctolagus cuniculus [2]): 9.5 mmHg |
| NS(=O)(=O)c1ccc(NC(=O)CN(CCN(CCN(CC(=O)O)CC(=O)Nc2ccc(S(N)(=O)=O)cc2Cl)CC(=O)O)CC(=O)O)c(Cl)c1 | 155 nM | 27 nM |  |
| NS(=O)(=O)c1cc(S(N)(=O)=O)c(NC(=O)CN(CCN(CCN(CC(=O)O)CC(=O)Nc2cc(Cl)c(S(N)(=O)=O)cc2S(N)(=O)=O)CC(=O)O)CC(=O)O)cc1Cl | 63 nM | 41 nM |  |
| NS(=O)(=O)c1ccc(CNC(=O)CN(CCN(CCN(CC(=O)O)CC(=O)O)CC(=O)O)CC(=O)O)cc1 | 550 nM | 40 nM |  |
| NS(=O)(=O)c1ccc(NNC(=O)CN(CCN(CCN(CC(=O)O)CC(=O)O)CC(=O)O)CC(=O)O)cc1 | 12000 nM | 630 nM |  |
| NS(=O)(=O)c1cc(S(N)(=O)=O)c(NC(=O)CN(CCN(CCN(CC(=O)O)CC(=O)O)CC(=O)O)CC(=O)O)cc1Cl | 87 nM | 52 nM |  |
| NS(=O)(=O)c1ccc(NC(=O)CN(CCN(CCN(CC(=O)O)CC(=O)O)CC(=O)O)CC(=O)O)c(Cl)c1 | 200 nM | 32 nM |  |
| NS(=O)(=O)c1nnc(NC(=O)CN(CCN(CCN(CC(=O)O)CC(=O)O)CC(=O)O)CC(=O)O)s1 | 55 nM | 28 nM | Change in IOP (Oryctolagus cuniculus [10]): 3.1 mmHg; Change in IOP (Oryctolagus cuniculus [11]): 6.8 mmHg; Change in IOP (Oryctolagus cuniculus [12]): 4.5 mmHg; Kin: 8.1 h⁻¹; Kin [9]: 4.3 h⁻¹ |
| NS(=O)(=O)c1ccc(NC(=O)CN(CCN(CCN(CC(=O)O)CC(=O)O)CC(=O)O)CC(=O)O)cc1 | 4100 nM | 180 nM | Change in IOP (Oryctolagus cuniculus [13]): 7.2 mmHg; Change in IOP (Oryctolagus cuniculus [14]): 3.1 mmHg; Change in IOP (Oryctolagus cuniculus [15]): 4.5 mmHg |
| NS(=O)(=O)c1nc2ccc(OCCOC(=O)CN(CCN(CCN(CC(=O)O)CC(=O)OCCOc3ccc4nc(S(N)(=O)=O)sc4c3)CC(=O)O)CC(=O)O)cc2s1 | 16 nM | 4 nM |  |
| NS(=O)(=O)c1ccc(CCOC(=O)CN(CCN(CCN(CC(=O)O)CC(=O)O)CC(=O)O)CC(=O)O)cc1 | 360 nM | 190 nM |  |
| NS(=O)(=O)c1ccc(CCOC(=O)CN(CCN(CCN(CC(=O)O)CC(=O)OCCc2ccc(S(N)(=O)=O)cc2)CC(=O)O)CC(=O)O)cc1 | 290 nM | 115 nM |  |
| NS(=O)(=O)c1ccccc1NC(=O)CN(CCN(CCN(CC(=O)O)CC(=O)Nc1ccccc1S(N)(=O)=O)CC(=O)O)CC(=O)O | 5400 nM | 330 nM |  |
| NS(=O)(=O)c1cccc(NC(=O)CN(CCN(CCN(CC(=O)O)CC(=O)O)CC(=O)O)CC(=O)O)c1 | 7200 nM | 500 nM |  |
| NS(=O)(=O)c1ccc(COC(=O)CN(CCN(CCN(CC(=O)O)CC(=O)OCc2ccc(S(N)(=O)=O)cc2)CC(=O)O)CC(=O)O)cc1 | 325 nM | 170 nM |  |
| NS(=O)(=O)c1nc2ccc(NC(=O)CN(CCN(CCN(CC(=O)O)CC(=O)O)CC(=O)O)CC(=O)O)cc2s1 | 36 nM | 9 nM |  |
| NS(=O)(=O)c1nnc(NC(=O)CCNC(=O)CN(CCN(CCN(CC(=O)O)CC(=O)O)CC(=O)O)CC(=O)O)s1 | 110 nM | 16 nM |  |

More lines, main results first:

| Ki (Carbonic anhydrase 1) | Ki (Carbonic anhydrase 4) | SMILES | other results |
| --- | --- | --- | --- |
| 43 nM | 5 nM | Cn1nc(S(N)(=O)=O)s/c1=N\C(=O)CN(CCN(CCN(CC(=O)O)CC(=O)/N=c1/sc(S(N)(=O)=O)nn1C)CC(=O)O)CC(=O)O |  |
| 58 nM | 36 nM | NS(=O)(=O)c1cc(S(N)(=O)=O)c(NC(=O)CN(CCN(CCN(CC(=O)O)CC(=O)O)CC(=O)O)CC(=O)O)c(Cl)c1Cl |  |
|  | 156 nM | NS(=O)(=O)c1ccc(NC(=O)CN(CCN(CCN(CC(=O)O)CC(=O)Nc2ccc(S(N)(=O)=O)cc2)CC(=O)O)CC(=O)O)cc1 | Change in IOP (Oryctolagus cuniculus [3]): 4.4 mmHg; Change in IOP (Oryctolagus cuniculus [4]): 7.5 mmHg; Change in IOP (Oryctolagus cuniculus [5]): 9.5 mmHg; Change in IOP (Oryctolagus cuniculus [6]): 6 mmHg; Change in IOP (Oryctolagus cuniculus [7]): 11 mmHg; Kin: 6.5 h⁻¹; logD [8]: 1.456; Kin [9]: 3.6 h⁻¹ |
| 79 nM | 21 nM | NS(=O)(=O)c1ccc(NC(=O)CN(CCN(CCN(CC(=O)O)CC(=O)Nc2ccc(S(N)(=O)=O)cc2Br)CC(=O)O)CC(=O)O)c(Br)c1 |  |
| 30 nM | 5 nM | NS(=O)(=O)c1nc2ccc(OCCOC(=O)CN(CCN(CCN(CC(=O)O)CC(=O)O)CC(=O)O)CC(=O)O)cc2s1 |  |
| 135 nM | 18 nM | NS(=O)(=O)c1ccc(NC(=O)CN(CCN(CCN(CC(=O)O)CC(=O)Nc2ccc(S(N)(=O)=O)cc2F)CC(=O)O)CC(=O)O)c(F)c1 |  |
| 21 nM | 5 nM | NS(=O)(=O)c1nc2ccc(OC(=O)CN(CCN(CCN(CC(=O)O)CC(=O)Oc3ccc4nc(S(N)(=O)=O)sc4c3)CC(=O)O)CC(=O)O)cc2s1 |  |
|  | 7 nM | NS(=O)(=O)c1nnc(NC(=O)CN(CCN(CCN(CC(=O)O)CC(=O)Nc2nnc(S(N)(=O)=O)s2)CC(=O)O)CC(=O)O)s1 | Kin: 6.2 h⁻¹; logD [8]: 1.961; Kin [9]: 3.9 h⁻¹ |
